Data reported in PubChem BioAssay AID330 (DTP/NCI, 2004).
Where “and” joins values, the source holds several entries; their conditions need not be identical. Equal entries are not always repeated. Inconclusive results and toxic doses are left out.

System: P388 leukemia ip, CD2F1 mice, survival T/C
Assay: NCI In Vivo Anticancer Drug Screen. Data for tumor model P388 Leukemia (intraperitoneal) in CD2F1 (CDF1) mice
Settings: endpoint: median survival time, higher = longer survival
Procedure, shortened: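 Mice carrying the transplanted tumor received test compound or vehicle. Survival was recorded in each group, and the value is the treated-group measurement divided by that of the vehicle-treated control group.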

[1] = dose: 50.0 mg/kg/injection, schedule: Q01DX005 (ip), vehicle: Klucel (hydroxypropylcellulose) (HPC)
[2] = dose: 100.0 mg/kg/injection, schedule: Q01DX005 (ip), vehicle: Klucel (hydroxypropylcellulose) (HPC)
[3] = dose: 200.0 mg/kg/injection, schedule: Q01DX005 (ip), vehicle: Klucel (hydroxypropylcellulose) (HPC)
[4] = dose: 100.0 mg/kg/injection, schedule: Q04DX002 (ip), vehicle: saline with Tween-80
[5] = dose: 200.0 mg/kg/injection, schedule: Q04DX002 (ip), vehicle: saline with Tween-80
[6] = dose: 50.0 mg/kg/injection, schedule: Q01DX009 (ip), vehicle: saline with Tween-80
[7] = dose: 100.0 mg/kg/injection, schedule: Q01DX009 (ip), vehicle: saline with Tween-80
[8] = dose: 200.0 mg/kg/injection, schedule: Q01DX009 (ip), vehicle: saline with Tween-80
[9] = dose: 100.0 mg/kg/injection, schedule: Q01DX001 (ip), vehicle: saline with Tween-80
[10] = dose: 60.0 mg/kg/injection, schedule: Q01DX005 (ip), vehicle: saline with Tween-80
[11] = dose: 120.0 mg/kg/injection, schedule: Q01DX005 (ip), vehicle: saline with Tween-80
[12] = dose: 240.0 mg/kg/injection, schedule: Q01DX005 (ip), vehicle: saline with Tween-80
[13] = dose: 60.0 mg/kg/injection, schedule: Q01DX005 (ip), vehicle: Klucel (hydroxypropylcellulose) (HPC)
[14] = dose: 120.0 mg/kg/injection, schedule: Q01DX005 (ip), vehicle: Klucel (hydroxypropylcellulose) (HPC)
[15] = dose: 240.0 mg/kg/injection, schedule: Q01DX005 (ip), vehicle: Klucel (hydroxypropylcellulose) (HPC)
[16] = dose: 50.0 mg/kg/injection, schedule: Q01DX005 (ip), vehicle: saline with Tween-80
[17] = dose: 100.0 mg/kg/injection, schedule: Q01DX005 (ip), vehicle: saline with Tween-80
[18] = dose: 200.0 mg/kg/injection, schedule: Q01DX005 (ip), vehicle: saline with Tween-80

`COc1ccc(OC)c2cc3c(cc12)C(=O)C(C)=C(C)C3=O` was tested, and the T/C [1] was 89 % of control, the T/C [2] was 86 % of control and the T/C [3] was 88 % of control.
For `O=Cc1c(-c2ccccc2)sc2ccccc2c1=O`, the T/C [4] was 113 % of control, the T/C [5] was 98 % of control and the T/C (dose: 400.0 mg/kg/injection, schedule: Q04DX002 (ip), vehicle: saline with Tween-80) was 109 % of control.
With `OC[C@@H](O)C[C@H](CO)Cc1ccc2c(c1)OCO2` the T/C (dose: 50.0 mg/kg/injection, schedule: Q04DX002 (ip), vehicle: saline with Tween-80) was 96 % of control, the T/C [4] was 87 % of control and the T/C [5] was 99 % of control.
With `O=Cc1ccc(C(Cl)(Cl)Cl)cc1` the T/C [6] was 123 % of control, the T/C (dose: 264.0 mg/kg/injection, schedule: Q04DX003 (ip), vehicle: saline with Tween-80) was 109 % of control and the T/C (dose: 400.0 mg/kg/injection, schedule: Q04DX003 (ip), vehicle: saline with Tween-80) was 159 % of control.
For `C[n+]1cccc(/C=N/O)c1`, the T/C (dose: 100.0 mg/kg/injection, schedule: Q04DX002 (ip), vehicle: saline) was 100 % of control and the T/C (dose: 200.0 mg/kg/injection, schedule: Q04DX002 (ip), vehicle: saline) was 100 % of control.
With `CC1(C)c2ccccc2-c2nc3ccccc3c(N)c2C1O` (configuration not stated) the T/C [1] was 104 % of control, the T/C [2] was 100 % of control and the T/C [3] was 104 % of control.
`CCCCC(CC)C(=O)[O][Sn]([CH2]CCC)([CH2]CCC)[O]C(=O)C(CC)CCCC` (configuration not stated) was tested, and the T/C (dose: 1.5 mg/kg/injection, schedule: Q01DX009 (ip), vehicle: saline sonified) was 104 % of control, the T/C (dose: 3.0 mg/kg/injection, schedule: Q01DX009 (ip), vehicle: saline sonified) was 95 % of control and the T/C (dose: 6.0 mg/kg/injection, schedule: Q01DX009 (ip), vehicle: saline sonified) was 118 % of control.
With `COc1cc2c(c(OC)c1OC)-c1ccc(=O)c(OC)cc1C(N(C)C(C)=O)CC2` (configuration not stated) the T/C (dose: 1.25 mg/kg/injection, schedule: Q01DX009 (ip), vehicle: Klucel (hydroxypropylcellulose) (HPC)) was 100 % of control, the T/C (dose: 2.5 mg/kg/injection, schedule: Q01DX009 (ip), vehicle: Klucel (hydroxypropylcellulose) (HPC)) was 100 % of control and the T/C (dose: 5.0 mg/kg/injection, schedule: Q01DX009 (ip), vehicle: Klucel (hydroxypropylcellulose) (HPC)) was 113 % of control. The T/C (dose: 10.0 mg/kg/injection, schedule: Q01DX009 (ip), vehicle: Klucel (hydroxypropylcellulose) (HPC)) was 103 % of control and the T/C (dose: 20.0 mg/kg/injection, schedule: Q01DX009 (ip), vehicle: Klucel (hydroxypropylcellulose) (HPC)) was 106 % of control.
In the case of `O=C(Nc1cccc2ccccc12)NN1C(=O)CSC1=S`, the T/C [6] is reported as 90 % of control, the T/C [7] is reported as 93 % of control and the T/C [8] is reported as 91 % of control.
`N#CN=[N+]([O-])c1ccccc1[N+](=O)[O-]` was tested, and the T/C (dose: 6.25 mg/kg/injection, schedule: Q04DX003 (ip), vehicle: Klucel (hydroxypropylcellulose) (HPC)) was 110 % of control and the T/C (dose: 12.5 mg/kg/injection, schedule: Q04DX003 (ip), vehicle: Klucel (hydroxypropylcellulose) (HPC)) was 106 % of control.
In the case of `CCOC(=O)Nc1c(C)noc1NC(C)=O`, the T/C [9] is reported as 100 % of control, the T/C (dose: 200.0 mg/kg/injection, schedule: Q01DX001 (ip), vehicle: saline with Tween-80) is reported as 100 % of control and the T/C (dose: 400.0 mg/kg/injection, schedule: Q01DX001 (ip), vehicle: saline with Tween-80) is reported as 95 % of control.
`CC(=O)Nc1ccc(S(=O)(=O)N/N=c2/sc3ccccc3n2C)cc1` was tested, and the T/C [10] was 100 % of control, the T/C [11] was 92 % of control and the T/C [12] was 95 % of control.
In the case of `COc1ccc(C(=O)NCCN2CCN3Cc4[nH]c5ccccc5c4CC3C2)cc1` (configuration not stated), the T/C (dose: 25.0 mg/kg/injection, schedule: Q01DX001 (ip), vehicle: saline with Tween-80) is reported as 95 % of control, the T/C (dose: 50.0 mg/kg/injection, schedule: Q01DX001 (ip), vehicle: saline with Tween-80) is reported as 97 % of control and the T/C [9] is reported as 95 % of control and 98 % of control.
For `C=C(C)C(O)CCCO[Si](c1ccccc1)(c1ccccc1)C(C)(C)C` (configuration not stated), the T/C [10] was 94 % of control, the T/C [11] was 95 % of control and the T/C [12] was 97 % of control.
For `Cn1nnc(-c2ccc(C(=O)O)cc2)n1`, the T/C [1] was 91 % of control and the T/C [2] was 91 % of control.
For `C[C@@H]1CC[C@]2(C)CC[C@]3(C)C(=CC[C@@H]4[C@@]5(C)CC[C@H](O)C(C)(C)[C@@H]5CC[C@]43C)[C@@H]2[C@H]1C(=O)O`, the T/C (dose: 0.5 mg/kg/injection, schedule: Q01DX005 (ip), vehicle: DMSO) was 99 % of control, the T/C (dose: 1.0 mg/kg/injection, schedule: Q01DX005 (ip), vehicle: DMSO) was 101 % of control and the T/C (dose: 2.0 mg/kg/injection, schedule: Q01DX005 (ip), vehicle: DMSO) was 100 % of control. For the same molecule, the T/C (dose: 4.0 mg/kg/injection, schedule: Q01DX005 (ip), vehicle: DMSO) was 100 % of control and 108 % of control and the T/C (dose: 8.0 mg/kg/injection, schedule: Q01DX005 (ip), vehicle: DMSO) was 98 % of control.
In the case of `COc1cc(C(c2cc3c(cc2O)OCO3)N2CCN(C(c3cc(OC)c(OC)c(OC)c3)c3cc4c(cc3O)OCO4)CC2)cc(OC)c1OC` (configuration not stated), the T/C [10] is reported as 87 % of control, the T/C [11] is reported as 90 % of control and the T/C [12] is reported as 87 % of control.
With `CC(=O)c1cc(Cl)ccc1OCC(O)CNc1ccccc1C(=O)c1ccccc1` (configuration not stated) the T/C [10] was 103 % of control, the T/C [11] was 87 % of control and the T/C [12] was 87 % of control.
`C/C(=N\N=C(N)N)c1cnc(N)nc1C` was tested, and the T/C [13] was 98 % of control, the T/C [14] was 97 % of control and the T/C [15] was 100 % of control.
For `Cn1c(=O)c2nc3c(=O)n(C)c(=O)n(C)c3nc2n(C)c1=O`, the T/C (dose: 6.25 mg/kg/injection, schedule: Q01DX009 (ip), vehicle: Klucel (hydroxypropylcellulose) (HPC)) was 100 % of control and 102 % of control and 118 % of control, the T/C (dose: 12.5 mg/kg/injection, schedule: Q01DX009 (ip), vehicle: Klucel (hydroxypropylcellulose) (HPC)) was 101 % of control and 103 % of control and 116 % of control and the T/C (dose: 25.0 mg/kg/injection, schedule: Q01DX009 (ip), vehicle: Klucel (hydroxypropylcellulose) (HPC)) was 104 % of control and 120 % of control. For the same molecule, the T/C (dose: 50.0 mg/kg/injection, schedule: Q01DX009 (ip), vehicle: Klucel (hydroxypropylcellulose) (HPC)) was 111 % of control.
In the case of `C/C(=N\NC(=S)N1CCCCCC1)c1cccc2cccnc12`, the T/C [16] is reported as 107 % of control, the T/C [17] is reported as 103 % of control and the T/C [18] is reported as 116 % of control.
For `COC(=O)NC1C(=O)OC2C1CC1OC12` (configuration not stated), the T/C [10] was 101 % of control, the T/C [11] was 100 % of control and the T/C [12] was 101 % of control.
`CCOC(=O)C1C2(C)NC(=O)C1(Cc1ccccc1)c1ccc(O)cc1O2` (configuration not stated) was tested, and the T/C [16] was 95 % of control, the T/C [17] was 96 % of control and the T/C [18] was 95 % of control.
In the case of `NOCc1ccccc1`, the T/C (dose: 100.0 mg/kg/injection, schedule: Q01DX009 (ip), vehicle: Klucel (hydroxypropylcellulose) (HPC)) is reported as 93 % of control and the T/C (dose: 200.0 mg/kg/injection, schedule: Q01DX009 (ip), vehicle: Klucel (hydroxypropylcellulose) (HPC)) is reported as 86 % of control.
With `COC(=O)N1C(c2ccccc2)C=CC(c2ccccc2)N1C(=O)OC` (configuration not stated) the T/C [13] was 103 % of control, the T/C [14] was 96 % of control and the T/C [15] was 96 % of control.
`COc1cccc(C(=O)N/N=C(\C#N)c2cccc(OC)c2)c1` was tested, and the T/C [16] was 97 % of control and the T/C [17] was 94 % of control.
With `O=C(O)C(=O)O.OO.OO.[O]=[V]` the T/C (dose: 0.94 mg/kg/injection, schedule: Q01DX005 (ip), vehicle: saline) was 92 % of control and the T/C (dose: 3.75 mg/kg/injection, schedule: Q01DX005 (ip), vehicle: saline) was 110 % of control.
In the case of `CCCCCCCCCCNCCSSCc1ccc(OC)cc1`, the T/C (dose: 6.25 mg/kg/injection, schedule: Q01DX005 (ip), vehicle: Klucel (hydroxypropylcellulose) (HPC)) is reported as 103 % of control, the T/C (dose: 12.5 mg/kg/injection, schedule: Q01DX005 (ip), vehicle: Klucel (hydroxypropylcellulose) (HPC)) is reported as 103 % of control and the T/C (dose: 25.0 mg/kg/injection, schedule: Q01DX005 (ip), vehicle: Klucel (hydroxypropylcellulose) (HPC)) is reported as 100 % of control.
For `CC([OH2+])CNCCN.CC([OH2+])CNCCN.O=[N+]([O-])[O-].[Ni+2]` (configuration not stated), the T/C (dose: 3.13 mg/kg/injection, schedule: Q01DX009 (ip), vehicle: saline) was 87 % of control, the T/C (dose: 6.25 mg/kg/injection, schedule: Q01DX009 (ip), vehicle: saline) was 88 % of control and the T/C (dose: 12.5 mg/kg/injection, schedule: Q01DX009 (ip), vehicle: saline) was 102 % of control and 87 % of control.
For `CCOC(=O)C1(C(=O)OCC)N=C(c2ccccc2)C=C1c1ccccc1`, the T/C [6] was 100 % of control, the T/C [7] was 98 % of control and the T/C [8] was 94 % of control.
With `CCOC(=O)CC1(O)CSc2nc(N)cc(=O)n21` (configuration not stated) the T/C [1] was 94 % of control, the T/C [2] was 99 % of control and the T/C [3] was 91 % of control.
